This assay relates to rituximab binding mimetope peptide. Put plainly: Peptide based ELISA: biotinylated mimetope peptides on streptavidin/neutravidin plates capture the antibody. The settings on record: biotinylated peptide on coated plate, peroxidase labeled secondary anti-Fc antibody. On the procedure: FIG. 2 (A) illustrates one embodiment of the lateral flow assay validating that rituximab binding mimetope peptide function in immunoassays and competes with the native antigen (CD20). FIG. 2 (A) is a standard curve for rituximab by peptide based ELISA. Biotinylated peptides are bound onto neutravidin coated ELISA plates. Rituximab is diluted in TBST. […] The solid line indicates the mean of the buffer control and the dashed line represents the mean +10 times the SD of the buffer control.
To confirm that a synthetic peptide captures the antibody, ELISAs were performed. Peptides biotinylated at the C-terminus were coated onto streptavidin coated plates and then incubated with a dilution serious of antibody. Binding was detected via a peroxidase labeled secondary anti-Fc antibody. Specificity was confirmed by lack of signal from either total Ig or using a different antibody. […] The antibody was fluorescently labeled and the cell staining evaluated with or without a molar excess of the presumed mimetope as well as control peptides. […]
FIG. 2 illustrates one embodiment of the lateral flow assay validating that rituximab binding mimetope peptide function in immunoassays and competes with the native antigen (CD20). […] Fluorescently labeled rituximab was incubated with primary CLL cells and evaluated by flow cytometry (solid line). […]

Consider “rituximab: monoclonal antibody; native antigen CD20”, for which the “sensitivity of peptide ELISA for the antibody” value was determined as 4 µg/mL.

(Values after patent US20150293086A1, “LATERAL FLOW IMMUNOASSAY” (ABREOS BIOSCIENCES, INC., priority 2014, published 2015).)
